In ChEMBL document CHEMBL3832060, “DailyMed|setid=39945812-f776-4b13-8199-e846e37aa101 | TRAMADOL HYDROCHLORIDE AND ACETAMINOPHEN - tramadol hydrochloride and acetaminophen tablet, film coated|Cadila Healthcare Limited”:

Assay: clinical
Settings: human, in vivo, po
Description: Evalaution of pharmacokinetic parameters of Acetaminophen following single oral co-administration of 325 mg Acetaminophen tablets with 37.5 mg Tramadol.

Cmax: 4200 ng/mL
Tmax: 0.9 h
half-life: 2.5 h
SMILES: CC(=O)Nc1ccc(O)cc1 [ACETAMINOPHEN]
